From patent publication US20260069531A1, “POLYMERIC LEUPROLIDE ACETATE FORMULATIONS” (Tolmar International Limited, priority 2023, published 2026)

Columns and labels:
[1] = LA gelation studies of drug solutions (60° C., inversion test, HPLC content); type: physicochemical; details: e-beam irradiated, 150 rpm, up to 16 days
Method: Drug solutions were prepared as described above and filled into syringes or glass vials. Syringes were untreated, contained various amounts of silicone, or were plasma coated for lubrication. Samples were irradiated by e-beam irradiation at not less than 25 kGy and stored at accelerated conditions of 60° C. with agitation at 150 rpm for up to 16 days. Samples were inspected periodically to determine if the drug solution remained a solution or had formed a solid/gel by an inversion test. Samples that had “gelled” were transferred to 5° C. for subsequent testing.
The gelation rate for each sample was calculated as Rate=1/(simulated 5° C. age at time of gelation in days). The Arrhenius equation was used to determine the simulated age, assuming standard reaction rate doubling for every 10° C. increase in temperature. […] Data was analyzed using JMP. […] Container type and lubrication were not significant.
Samples were tested for leuprolide content by HPLC. Leuprolide content was then converted to leuprolide acetate by multiplying by 1.078 (based on molecular mass ratios). A marked difference in leuprolide acetate content between the gelled and non-gelled samples was seen, with the tipping point between solution and solid/gelled samples occurring at about 45% LA.

[2] = type: physicochemical
Excerpt: To produce the drug/solvent bulk solution comprising the API (LA), the desired amount of the LA was combined with the solvent NMP or DMSO or combination of solvents with or without a co-solvent or other additives, in the indicated amounts (see individual experiments below). The API and solvent were combined in a glass vial or jar. Jars were mixed using the jar mill, Turbula, or shaker at room temperature until homogeneous. LA is soluble in NMP or DMSO and can load higher concentrations (at least 40% w/w). After dissolving the API in the organic solvent, the bulk solution was manually filled into syringes and capped with a tip cap. The syringes used for filling were either 1.2 mL male polypropylene syringes, 1.2 mL male cyclic olefin copolymer syringes or 1 mL male cyclic olefin copolymer syringes. Filled syringes were then packaged in labeled foil pouches with a Syringe A (polymer-solvent solution) and a desiccant pack and the pouches were sealed. After filling the syringes with the formulations, they were terminally sterilized with an external radiation dose of 30 kGy from e-beam processing. After terminal sterilization, the syringes were stored under refrigerated conditions (e.g., 2-8° C.) or accelerated conditions (>25° C. see individual experiments).

tipping point between solution and solid/gelled samples (leuprolide acetate content) [1]: about 45 % LA
concentration of LA that can be loaded (soluble) [2]: at least 40 % w/w
Compound: CCNC(=O)[C@@H]1CCCN1C(=O)[C@H](CCCNC(=N)N)NC(=O)[C@H](CC(C)C)NC(=O)[C@@H](CC(C)C)NC(=O)[C@H](Cc1ccc(O)cc1)NC(=O)[C@H](CO)NC(=O)[C@H](Cc1c[nH]c2ccccc12)NC(=O)[C@H](Cc1c[nH]cn1)NC(=O)[C@@H]1CCC(=O)N1 [Leuprolide Acetate, leuprolide acetate]
